# Results as given in patent publication US10253341B2, “Mutant sugar isomerase with improved activity, derived from E. coli, and production of L-gulose using the same” (priority 2014, dated 2019).
# What was measured:
# Format in all cases: biochemical
# [1] = target: Escherichia coli O157:H7 sugar isomerase (EcSI), wild type, SEQ ID NO: 3 (Escherichia coli, UniProt A0A6M7H989)
# [2] = target: Escherichia coli O157:H7 sugar isomerase (EcSI, SEQ ID NO: 3) variant I112C (Escherichia coli, UniProt A0A6M7H989, I112C)
# [3] = target: Escherichia coli O157:H7 sugar isomerase (EcSI, SEQ ID NO: 3) variant T56M (Escherichia coli, UniProt A0A6M7H989, T56M)
# [4] = target: Escherichia coli O157:H7 sugar isomerase (EcSI, SEQ ID NO: 3) variant M92L (Escherichia coli, UniProt A0A6M7H989, M92L)
# [5] = target: Escherichia coli O157:H7 sugar isomerase (EcSI, SEQ ID NO: 3) variant I112C T56M (Escherichia coli, UniProt A0A6M7H989, I112C/T56M)
# [6] = target: Escherichia coli O157:H7 sugar isomerase (EcSI, SEQ ID NO: 3) variant I112C T56M M92L (Escherichia coli, UniProt A0A6M7H989, I112C/M92L/T56M)
compound,measurement,setting,value
OCC1(O)OC[C@H](O)[C@@H](O)[C@@H]1O (stereo partly drawn) [L-sorbose],kcat,[1],84 S^−1
same,kcat/Km,[1],0.63 mM^−1S^−1
same,kcat,[2],88 S^−1
same,kcat/Km,[2],0.92 mM^−1S^−1
same,kcat,[3],101 S^−1
same,kcat/Km,[3],0.85 mM^−1S^−1
same,kcat,[4],105 S^−1
same,kcat/Km,[4],0.70 mM^−1S^−1
same,kcat,[5],144 S^−1
same,kcat/Km,[5],1.53 mM^−1S^−1
same,kcat,[6],245 S^−1
same,kcat/Km,[6],2.28 mM^−1S^−1
